Numbers after ± are expanded uncertainties.
Test: mn = molality of the nth substance listed, in mol/kg
Conditions: 101 kPa, Liquid; for viscosity: Capillary tube (Ostwald / Ubbelohde) method; for electrical conductivity: Dip type conductivity cell; for mass density: Pycnometric method; for speed of sound: Sing-around technique in a fixed-path interferometer

CCCCCCCCCCCCCCCC[N+](C)(C)CC.[Br-] [ethylhexadecyldimethylammonium bromide] + O
Conditions | electrical conductivity [S/m] | mass density [kg/m3] | speed of sound [m/s] | viscosity [mPa·s]
298.15 K, m1 = 0.0002 | 0.0027 ± 0.00011 | 996.43 ± 0.43 | 1498.5 ± 0.94 | 0.8803 ± 0.036
298.15 K, m1 = 0.0005 | 0.00707 ± 0.00028 | 996.47 ± 0.43 | 1499.3 ± 0.94 | 0.8841 ± 0.036
298.15 K, m1 = 0.0008 | 0.0105 ± 0.00042 | 996.51 ± 0.42 | 1500 ± 0.94 | 0.887 ± 0.036
298.15 K, m1 = 0.0012 | 0.0119 ± 0.00048 | 996.54 ± 0.41 | 1500.3 ± 0.94 | 0.8904 ± 0.036
298.15 K, m1 = 0.0016 | 0.0127 ± 0.00051 | 996.56 ± 0.41 | 1500.1 ± 0.94 | 0.8929 ± 0.036
298.15 K, m1 = 0.002 | 0.0138 ± 0.00055 | 996.58 ± 0.41 | 1499.9 ± 0.94 | 0.8952 ± 0.036
298.15 K, m1 = 0.0025 | 0.0152 ± 0.00061 | 996.6 ± 0.41 | 1499.9 ± 0.94 | 0.8979 ± 0.036
298.15 K, m1 = 0.003 | 0.0161 ± 0.00065 | 996.62 ± 0.41 | 1499.7 ± 0.94 | 0.9007 ± 0.037
303.15 K, m1 = 0.0002 | 0.00301 ± 0.00012 | 994.49 ± 0.42 | 1510.3 ± 0.93 | 0.7889 ± 0.032
303.15 K, m1 = 0.0005 | 0.00808 ± 0.00032 | 994.52 ± 0.43 | 1511 ± 0.93 | 0.792 ± 0.032
303.15 K, m1 = 0.0008 | 0.0127 ± 0.00051 | 994.56 ± 0.42 | 1511.8 ± 0.93 | 0.7945 ± 0.032
303.15 K, m1 = 0.0012 | 0.0144 ± 0.00058 | 994.59 ± 0.42 | 1512.3 ± 0.93 | 0.7978 ± 0.032
303.15 K, m1 = 0.0016 | 0.0153 ± 0.00061 | 994.61 ± 0.41 | 1512.2 ± 0.93 | 0.8001 ± 0.032
303.15 K, m1 = 0.002 | 0.0167 ± 0.00067 | 994.62 ± 0.42 | 1512 ± 0.93 | 0.8021 ± 0.033
303.15 K, m1 = 0.0025 | 0.0178 ± 0.00071 | 994.64 ± 0.42 | 1511.8 ± 0.93 | 0.8047 ± 0.033
303.15 K, m1 = 0.003 | 0.0194 ± 0.00078 | 994.66 ± 0.42 | 1511.6 ± 0.93 | 0.807 ± 0.033
308.15 K, m1 = 0.0002 | 0.00338 ± 0.00014 | 992.55 ± 0.43 | 1518.6 ± 0.93 | 0.7097 ± 0.029
308.15 K, m1 = 0.0005 | 0.00879 ± 0.00035 | 992.58 ± 0.43 | 1519.2 ± 0.94 | 0.7125 ± 0.029
308.15 K, m1 = 0.0008 | 0.014 ± 0.00056 | 992.61 ± 0.42 | 1519.9 ± 0.94 | 0.7157 ± 0.029
308.15 K, m1 = 0.0012 | 0.0161 ± 0.00065 | 992.63 ± 0.42 | 1520.4 ± 0.94 | 0.719 ± 0.029
308.15 K, m1 = 0.0016 | 0.017 ± 0.00068 | 992.65 ± 0.42 | 1520.2 ± 0.94 | 0.7209 ± 0.029
308.15 K, m1 = 0.002 | 0.0185 ± 0.00074 | 992.66 ± 0.42 | 1520 ± 0.94 | 0.7228 ± 0.029
308.15 K, m1 = 0.0025 | 0.0195 ± 0.00078 | 992.67 ± 0.42 | 1520 ± 0.94 | 0.725 ± 0.029
308.15 K, m1 = 0.003 | 0.0217 ± 0.00087 | 992.69 ± 0.42 | 1519.5 ± 0.94 | 0.7271 ± 0.03
313.15 K, m1 = 0.0002 | 0.00364 ± 0.00015 | 990.61 ± 0.43 | 1528.8 ± 0.94 | 0.641 ± 0.026
313.15 K, m1 = 0.0005 | 0.00952 ± 0.00038 | 990.63 ± 0.44 | 1529.9 ± 0.94 | 0.6432 ± 0.026
313.15 K, m1 = 0.0008 | 0.0153 ± 0.00061 | 990.67 ± 0.43 | 1530.4 ± 0.94 | 0.6469 ± 0.026
313.15 K, m1 = 0.0012 | 0.0183 ± 0.00073 | 990.68 ± 0.42 | 1531.2 ± 0.94 | 0.6502 ± 0.026
313.15 K, m1 = 0.0016 | 0.0187 ± 0.00075 | 990.69 ± 0.43 | 1531.1 ± 0.94 | 0.652 ± 0.026
313.15 K, m1 = 0.002 | 0.0209 ± 0.00084 | 990.7 ± 0.43 | 1530.9 ± 0.94 | 0.6539 ± 0.027
313.15 K, m1 = 0.0025 | 0.0224 ± 0.0009 | 990.72 ± 0.43 | 1530.7 ± 0.94 | 0.6558 ± 0.027
313.15 K, m1 = 0.003 | 0.0243 ± 0.00097 | 990.73 ± 0.43 | 1530.5 ± 0.94 | 0.6576 ± 0.027
318.15 K, m1 = 0.0002 | 0.00396 ± 0.00016 | 988.67 ± 0.43 | 1537.1 ± 0.93 | 0.582 ± 0.024
318.15 K, m1 = 0.0005 | 0.0107 ± 0.00043 | 988.68 ± 0.43 | 1538.2 ± 0.94 | 0.5832 ± 0.024
318.15 K, m1 = 0.0008 | 0.0171 ± 0.00068 | 988.7 ± 0.44 | 1538.5 ± 0.94 | 0.587 ± 0.024
318.15 K, m1 = 0.0012 | 0.021 ± 0.00084 | 988.73 ± 0.43 | 1539.4 ± 0.94 | 0.5903 ± 0.024
318.15 K, m1 = 0.0016 | 0.023 ± 0.00092 | 988.74 ± 0.43 | 1539.2 ± 0.94 | 0.5922 ± 0.024
318.15 K, m1 = 0.002 | 0.025 ± 0.001 | 988.75 ± 0.43 | 1539 ± 0.94 | 0.5935 ± 0.024
318.15 K, m1 = 0.0025 | 0.0265 ± 0.0011 | 988.76 ± 0.43 | 1538.8 ± 0.94 | 0.5954 ± 0.024
318.15 K, m1 = 0.003 | 0.028 ± 0.0011 | 988.78 ± 0.43 | 1538.6 ± 0.94 | 0.5971 ± 0.024
323.15 K, m1 = 0.0002 | – | 986.71 ± 0.44 | 1541.7 ± 0.93 | 0.5274 ± 0.022
323.15 K, m1 = 0.0005 | – | 986.72 ± 0.44 | 1542.8 ± 0.93 | 0.5298 ± 0.022
323.15 K, m1 = 0.0008 | – | 986.74 ± 0.44 | 1543.5 ± 0.93 | 0.5334 ± 0.022
323.15 K, m1 = 0.0012 | – | 986.76 ± 0.44 | 1544.5 ± 0.93 | 0.5357 ± 0.022
323.15 K, m1 = 0.0016 | – | 986.78 ± 0.44 | 1544.3 ± 0.94 | 0.5384 ± 0.022
323.15 K, m1 = 0.002 | – | 986.79 ± 0.44 | 1544.1 ± 0.94 | 0.5398 ± 0.022
323.15 K, m1 = 0.0025 | – | 986.8 ± 0.44 | 1544 ± 0.94 | 0.5413 ± 0.022
323.15 K, m1 = 0.003 | – | 986.81 ± 0.44 | 1543.8 ± 0.94 | 0.5426 ± 0.022
